In patent US20150290192A1, “INHIBITORS OF BRUTON'S TYROSINE KINASE” (HOFFMANN-LA ROCHE INC., priority 2012, published 2015):
Marks after values point to notes of the source that are not given here.

Legend:
Btk kinase = Btk kinase (Homo sapiens, UniProt Q06187); experiment: Btk Biacore binding assay
Procedure: Analyses were performed on a Biacore T-100. Btk kinase was avi-tagged and co-expressed in baculovirus with biotin ligase to generate single site biotinylated Btk (Avidity, LLC). Biotinylated target was captured on Biacore streptavidin sensor chips (Series S Sensor Chip SA) at densities of ˜10000 resonance units (1 ru˜1 pg protein/mm2). […] Compounds were injected for 100 seconds association time and dissociation was followed for 20 min.

[1] = tested on: mice, poly I:C-induced airway neutrophilia; experiment: Poly I:C induced steroid-resistant airway inflammation (neutrophilia); assay type: in vivo, mouse; conditions: for % reduction in airway neutrophilia: Inhaled
Procedure: Compound 1's effects on airway inflammation induced by a synthetic form of double-stranded RNA, polyinosine-polycytidylic acid (Poly I:C) were assessed. […] To perform this experiment, mice (male; BALB/c; 7-9 weeks of age) were anesthetized with isoflurane and intranasally (i.n.) administered saline or poly I:C ([…]) and airway inflammation was evaluated 24 hours later as previously described [Harris et al., 2012, Mucosal Immunology]. Compound 1 inhibited poly I:C-induced airway neutrophilia in a dose-dependent (Table 6). These reductions in neutrophils were consistent with reductions in the levels of neutrophil chemoattractants in the lavage fluid (Table 4).

Pharmacokinetics in rat = assay type: in vivo
[2] = tested on: OVA sensitized and challenged mice, allergen-induced bronchoconstriction; experiment: Ovalbumin-induced allergic airway disease: allergen-induced bronchoconstriction

Chain of Btk kinase (Q06187 whole entry): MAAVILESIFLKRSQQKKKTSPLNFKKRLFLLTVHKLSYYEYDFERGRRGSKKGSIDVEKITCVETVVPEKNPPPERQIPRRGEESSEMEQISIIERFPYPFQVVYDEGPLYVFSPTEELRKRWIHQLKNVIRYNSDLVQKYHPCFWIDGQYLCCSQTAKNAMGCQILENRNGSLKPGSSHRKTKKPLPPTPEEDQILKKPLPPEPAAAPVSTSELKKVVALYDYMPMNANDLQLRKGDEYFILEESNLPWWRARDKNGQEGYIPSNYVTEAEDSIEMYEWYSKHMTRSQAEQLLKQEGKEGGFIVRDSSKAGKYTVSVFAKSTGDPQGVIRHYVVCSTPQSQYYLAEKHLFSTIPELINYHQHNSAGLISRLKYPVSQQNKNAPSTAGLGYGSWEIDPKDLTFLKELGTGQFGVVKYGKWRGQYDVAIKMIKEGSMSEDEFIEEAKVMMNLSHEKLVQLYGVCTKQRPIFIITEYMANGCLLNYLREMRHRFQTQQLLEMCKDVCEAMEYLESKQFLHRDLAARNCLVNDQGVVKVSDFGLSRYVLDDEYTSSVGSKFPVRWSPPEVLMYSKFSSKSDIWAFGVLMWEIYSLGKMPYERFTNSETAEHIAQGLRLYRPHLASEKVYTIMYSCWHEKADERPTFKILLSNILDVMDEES

Kd (Btk kinase): 0.408 nM
off rate (Btk kinase; Biacore): very slow
kon (Btk kinase; read-out: Biacore Ka): 886000 M⁻¹ s⁻¹
CL (Pharmacokinetics in rat; 1.0 mg/kg (iv)): high
Oral Bioavailability (Pharmacokinetics in rat; 1.0 (iv), 2.0 (po) mg/kg): low
clearance (Pharmacokinetics in rat; plasma, 1.0 mg/kg (iv)): 75.8 mL/min/kg
bioavailability (Pharmacokinetics in rat; plasma, 2 mg/kg, 1.0 (iv), 2.0 (po) mg/kg): 2%
SMILES: CN1CCC(c2ccc(Nc3cc(-c4ccnc(-n5ncc6cc(C(C)(C)C)cc(F)c6c5=O)c4CO)nn(C)c3=O)nc2)CC1 [Compound 1, 6-tert-Butyl-8-fluoro-2-{3-hydroxymethyl-4-[1-methyl-5-(1′-methyl-1′,2′,3′,4′,5′,6′-hexahydro-[3,4′]bipyridinyl-6-ylamino)-6-oxo-1,6-dihydro-pyridazin-3-yl]-pyridin-2-yl}-2H-phthalazin-1-one]
% reduction in airway neutrophilia ([1]; delivered dose 0.09 mg/kg, deposited dose .003 mg/kg, mPolyIC-3-12): 17%
% reduction in airway neutrophilia ([1]; delivered dose 0.27 mg/kg, deposited dose .010 mg/kg, mPolyIC-3-12): 22%
% reduction in airway neutrophilia ([1]; delivered dose 0.81 mg/kg, deposited dose .030 mg/kg, mPolyIC-3-12): 67* %
% reduction in airway neutrophilia ([1]; delivered dose 8.6 mg/kg, deposited dose 0.3 mg/kg, mPolyIC-5-12): 83* %
poly I:C-induced airway neutrophilia ([1]; dose-dependent): inhibited
levels of neutrophil chemoattractants in the lavage fluid ([1]; mouse, in vivo): reductions
% reduction in airway resistance (R) ([2]; Inhaled, delivered dose 1.0 mg/kg, deposited dose 0.03 mg/kg, mOVA36): 44%
% reduction in airway resistance (R) ([2]; Inhaled, delivered dose 2.7 mg/kg, deposited dose 0.1 mg/kg, mOVA36): 59* %
% reduction in airway resistance (R) ([2]; Inhaled, delivered dose 8.6 mg/kg, deposited dose 0.3 mg/kg, mOVA36): 86* %
% reduction in airway resistance (R) ([2]; Intranasal, delivered dose 0.3 mg/kg, deposited dose 0.3 mg/kg): 85* %
OVA-induced increase in R ([2]; administered i.n. or delivered as a dry powder formulation by inhalation): effectively inhibited
